In patent US6525001B1, “Substituted pyrimidine and pyridine herbicides” (Mid-American Commercialization Corporation, priority 1997, dated 2003):

Tests used:
Assay type in all cases: in vivo
[1] = test system: large crabgrass (Digitaria sanguinalis); assay: Test C; parameters: key: 0 was no effect; 100 was complete control; details: PREEMERGENCE
[2] = test system: arrowleaf sida (Sida rhombifolia); assay: Test C; parameters: key: 0 was no effect; 100 was complete control; details: PREEMERGENCE
[3] = test system: velvetleaf (Abutilon theophrasti); assay: Test A pre-/postemergence; parameters: key: 0 is no effect; 10 is complete control; details: 0 to 10 scale
[4] = test system: barnyardgrass (Echinochloa crus-galli); assay: Test A pre-/postemergence; parameters: key: 0 is no effect; 10 is complete control; details: 0 to 10 scale
[5] = test system: crabgrass (Digitaria spp.); assay: Test A pre-/postemergence; parameters: key: 0 is no effect; 10 is complete control; details: 0 to 10 scale
[6] = test system: guineagrass (Panicum maximum); assay: Test E pre-/postemergence/post directed; parameters: key: 0 is no effect; 100 is complete control
Description: (§1) Seeds, tubers, or plant parts of alexandergrass (Brachiaria plantaginea), annual bluegrass (Poa annua), arrowleaf sida (Sida rhombifolia), barnyardgrass (Echinochloa crus-galli), bermudagrass (Cynodon dactylon), citrus (Citrus sinensis), common chickweed (Stellaria media), common purslane (Portulaca oleracea), common ragweed (Ambrosia elatior), common groundsel (Senecio vulgaris), dallisgrass (Paspalum dilatatum), goosegrass (Eleusine indica), green foxtail (Setaria viridis), guineagrass (Panicum maximum), itchgrass (Rottboellia exaltata), johnson grass (Sorghum halepense), kochia (Kochia scoparia), large crabgrass (Digitaria sanguinalis), leafy spurge (Euphorbia esula), pitted morningglory (Ipomoea lacunosa), purple nutsedge (Cyperus rotundus), quackgrass (Agropyron repens), Russian thistle (Salsola kali), sandbur (Cenchrus echinatus), sourgrass (Trichachne insularis), Spanishneedles (Bidens bipinnata), sugarcane (Saccharum officinarum), surinam grass (Brachiaria decumbens) and tall mallow (Malva sylvestris) were planted into greenhouse pots of flats containing greenhouse planting medium. Plant species were grown grown in separate pots or individual compartments. Preemergence applications were made within one day of planting the seed or plant part. Postemergence applications were applied when the plants were in the two to four leaf stage (three to twenty cm).
(§2) Test chemicals were formulated in a non-phytotoxic solvent mixture which included a surfactant and applied preemergence to the soil surface, postemergence to the plants or as a post directed spray to plants and soil at the base of the target species. Untreated control plants and treated plants were placed in the greenhouse and visually evaluated for injury 13 to 21 days after herbicide application. Plant response ratings, summarized in Table E, are based on a 0 to 100 scale where 0 is no injury and 100 is complete control. A dash (−) response means no test result.

[7] = test system: dallisgrass (Paspalum dilatatum); assay: Test E pre-/postemergence/post directed; parameters: key: 0 is no effect; 100 is complete control
Description: as §1, §2

[8] = test system: tall mallow (Malva sylvestris); assay: Test E pre-/postemergence/post directed; parameters: key: 0 is no effect; 100 is complete control; details: PREEMERGENCE
Description: as §1, §2

[9] = test system: common ragweed (Ambrosia elatior); assay: Test E pre-/postemergence/post directed; parameters: key: 0 is no effect; 100 is complete control; details: PREEMERGENCE
Description: as §1, §2

[10] = test system: goosegrass (Eleusine indica); assay: Test E pre-/postemergence/post directed; parameters: key: 0 is no effect; 100 is complete control
Description: as §1, §2

[11] = test system: sourgrass (Trichachne insularis); assay: Test E pre-/postemergence/post directed; parameters: key: 0 is no effect; 100 is complete control
Description: as §1, §2

[12] = test system: common purslane (Portulaca oleracea); assay: Test E pre-/postemergence/post directed; parameters: key: 0 is no effect; 100 is complete control
Description: as §1, §2

[13] = test system: common groundsel (Senecio vulgaris); assay: Test E pre-/postemergence/post directed; parameters: key: 0 is no effect; 100 is complete control; details: PREEMERGENCE
Description: as §1, §2

[14] = test system: large crabgrass (Digitaria sanguinalis); assay: Test E pre-/postemergence/post directed; parameters: key: 0 is no effect; 100 is complete control; details: PREEMERGENCE
Description: as §1, §2

[15] = PRE SOIL DRENCH, Rate 2000 g/ha
[16] = postemergence SPRAYED TO RUNOFF, Rate 1000 g/ha

Structure (SMILES): Cc1cnc(-c2ccc(C(F)(F)F)cc2)nc1C(Cl)c1cccc(C(F)(F)F)c1 (racemic) [Compound 21]
- Plant response rating, Large crabgrass ([1]; Rate 35 g/ha): 80
- Plant response rating, Large crabgrass ([1]; Rate 70 g/ha): 100
- Plant response rating, Large crabgrass ([1]; Rate 140 g/ha): 100
- Plant response rating, Arrowleaf sida ([2]; Rate 35 g/ha): 70
- Plant response rating, Arrowleaf sida ([2]; Rate 70 g/ha): 85
- Plant response rating, Arrowleaf sida ([2]; Rate 140 g/ha): 90

Structure (SMILES): Cc1cnc(-c2ccc(Cl)cc2)nc1Cn1ccc(C(F)(F)F)n1 [Compound 6]
- Plant response rating, Velvetleaf [3, 15]: 8
- Plant response rating, Velvetleaf [3, 16]: 9
- Plant response rating, Barnyardgrass [4, 15]: 8
- Plant response rating, Barnyardgrass [4, 16]: 8
- Plant response rating, Crabgrass [5, 15]: 9
- Plant response rating, Crabgrass [5, 16]: 9

Structure (SMILES): Cc1cnc(-c2ccc(C(F)(F)F)cc2)nc1Cn1cc(I)cn1 [Compound 12]
- Plant response rating, Velvetleaf [3, 15]: 5
- Plant response rating, Velvetleaf [3, 16]: 6
- Plant response rating, Barnyardgrass [4, 15]: 7
- Plant response rating, Barnyardgrass [4, 16]: 5
- Plant response rating, Crabgrass [5, 15]: 9
- Plant response rating, Crabgrass [5, 16]: 8

Structure (SMILES): Cc1cnc(-c2ccc(C(F)(F)F)cc2)nc1Cn1nc(C(F)(F)F)cc1C [Compound 13]
- Plant response rating, Velvetleaf [3, 15]: 9
- Plant response rating, Velvetleaf [3, 16]: 8
- Plant response rating, Barnyardgrass [4, 15]: 9
- Plant response rating, Barnyardgrass [4, 16]: 6
- Plant response rating, Crabgrass [5, 15]: 10
- Plant response rating, Crabgrass [5, 16]: 9

Structure (SMILES): COc1cnc(-c2ccc(C(F)(F)F)cc2)nc1Cc1cccc(C(F)(F)F)c1 [Compound 23]
- Plant response rating, Guineagrass ([6]; POSTEMERGENCE, Rate 250 g/ha): 75
- Plant response rating, Guineagrass ([6]; PREEMERGENCE, Rate 32 g/ha): 80
- Plant response rating, Guineagrass ([6]; PREEMERGENCE, Rate 64 g/ha): 98
- Plant response rating, Guineagrass ([6]; PREEMERGENCE, Rate 125 g/ha): 98
- Plant response rating, Guineagrass ([6]; PREEMERGENCE, Rate 250 g/ha): 100
- Plant response rating, Dallisgrass ([7]; POSTEMERGENCE, Rate 250 g/ha): 40
- Plant response rating, Dallisgrass ([7]; PREEMERGENCE, Rate 32 g/ha): 80
- Plant response rating, Dallisgrass ([7]; PREEMERGENCE, Rate 64 g/ha): 85
- Plant response rating, Dallisgrass ([7]; PREEMERGENCE, Rate 125 g/ha): 90
- Plant response rating, Dallisgrass ([7]; PREEMERGENCE, Rate 250 g/ha): 100
- Plant response rating, Tall Mallow ([8]; Rate 32 g/ha): 80
- Plant response rating, Tall Mallow ([8]; Rate 64 g/ha): 85
- Plant response rating, Tall Mallow ([8]; Rate 125 g/ha): 85
- Plant response rating, Tall Mallow ([8]; Rate 250 g/ha): 90
- Plant response rating, Com. ragweed ([9]; Rate 125 g/ha): 100
- Plant response rating, Com. ragweed ([9]; Rate 250 g/ha): 100
- Plant response rating, Goosegrass ([10]; POSTEMERGENCE, Rate 250 g/ha): 75
- Plant response rating, Goosegrass ([10]; PREEMERGENCE, Rate 32 g/ha): 98
- Plant response rating, Goosegrass ([10]; PREEMERGENCE, Rate 64 g/ha): 98
- Plant response rating, Goosegrass ([10]; PREEMERGENCE, Rate 125 g/ha): 98
- Plant response rating, Goosegrass ([10]; PREEMERGENCE, Rate 250 g/ha): 100
- Plant response rating, Sourgrass ([11]; POSTEMERGENCE, Rate 250 g/ha): 30
- Plant response rating, Sourgrass ([11]; PREEMERGENCE, Rate 32 g/ha): 98
- Plant response rating, Sourgrass ([11]; PREEMERGENCE, Rate 64 g/ha): 98
- Plant response rating, Sourgrass ([11]; PREEMERGENCE, Rate 125 g/ha): 100
- Plant response rating, Sourgrass ([11]; PREEMERGENCE, Rate 250 g/ha): 100
- Plant response rating, Com. purslane ([12]; POSTEMERGENCE, Rate 250 g/ha): 50
- Plant response rating, Com. purslane ([12]; PREEMERGENCE, Rate 32 g/ha): 100
- Plant response rating, Com. purslane ([12]; PREEMERGENCE, Rate 64 g/ha): 100
- Plant response rating, Com. purslane ([12]; PREEMERGENCE, Rate 125 g/ha): 100
- Plant response rating, Com. purslane ([12]; PREEMERGENCE, Rate 250 g/ha): 100
- Plant response rating, Com. groundsel ([13]; Rate 32 g/ha): 100
- Plant response rating, Com. groundsel ([13]; Rate 64 g/ha): 100
- Plant response rating, Com. groundsel ([13]; Rate 125 g/ha): 100
- Plant response rating, Com. groundsel ([13]; Rate 250 g/ha): 100
- Plant response rating, Large crabgrass ([14]; Rate 125 g/ha): 100
- Plant response rating, Large crabgrass ([14]; Rate 250 g/ha): 100
- Plant response rating, Large crabgrass ([1]; Rate 35 g/ha): 100
- Plant response rating, Large crabgrass ([1]; Rate 70 g/ha): 100
- Plant response rating, Large crabgrass ([1]; Rate 140 g/ha): 100
- Plant response rating, Arrowleaf sida ([2]; Rate 35 g/ha): 80
- Plant response rating, Arrowleaf sida ([2]; Rate 70 g/ha): 100
- Plant response rating, Arrowleaf sida ([2]; Rate 140 g/ha): 100

Structure (SMILES): Cc1cnc(-n2cnc(C(F)(F)F)n2)nc1Cc1cccc(C(F)(F)F)c1 [Compound 43]
- Plant response rating, Large crabgrass ([1]; Rate 35 g/ha): 100
- Plant response rating, Large crabgrass ([1]; Rate 70 g/ha): 100
- Plant response rating, Large crabgrass ([1]; Rate 140 g/ha): 100
- Plant response rating, Arrowleaf sida ([2]; Rate 35 g/ha): 100
- Plant response rating, Arrowleaf sida ([2]; Rate 70 g/ha): 100
- Plant response rating, Arrowleaf sida ([2]; Rate 140 g/ha): 100
